Data reported in patent US20170334899A1, “AMINO-SUBSTITUTED ISOTHIAZOLES” (Bayer Pharma Aktiengesellschaft, priority 2014, published 2017).

Tests used:
[1] = system: human cervical tumor cell line HeLa (ATCC CCL-2); assay: SAC-Formation - Nocodazole-Induced Assay; format: cell-based; settings: Homo sapiens, HeLa, 24 h, HeLa cells, nocodazole 0.1 μg/ml together with test compound, decrease of mitotic cells (phospho-histone H3 Ser10)
Procedure, shortened: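 Loss of phospho-histone H3 Ser10-positive cells, counted against Hoechst-stained nuclei by high-content imaging, marked mitotic breakthrough. Compounds (0.005–20 μM, 0.5% DMSO) were co-dosed with 0.1 μg/ml nocodazole onto HeLa cells for 24 h at 37 °C. Curves were fitted with a four-parameter Hill equation.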

[2] = system: human cervical tumor cell line HeLa (ATCC CCL-2); assay: SAC-Formation - Paclitaxel-Induced Assay; format: cell-based; settings: Homo sapiens, HeLa, 24 h, HeLa cells, paclitaxel 0.05 μM, test range 0.005 μM-20 μM, read-out: IC50 [mol/l] SAC-Formation - Paclitaxel-Induced Assay
Procedure, shortened: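 Read-out is high-content imaging of anti-phospho-H3 Ser10 (mitosis) and Hoechst 33342 (DNA, cell number), with decreased mitotic fraction marking checkpoint breakthrough. Compounds (0.005–20 μM) and 0.05 μM paclitaxel co-added to overnight-plated HeLa for 24 h at 37° C; four-parameter Hill fit.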

Row | IC50 [1] [nM] | IC50 [2] [nM] | SMILES
1 | 210 | 140 | Cc1nsc(Nc2cnc(C(F)(F)F)cn2)c1C(=O)Nc1ccc(F)c(OC[C@H]2CCCN(CCC(F)(F)F)C2)c1 [Example 418, N-(4-Fluoro-3-{[(3S)-1-(3,3,3-trifluoropropyl)piperidin-3-yl]methoxy}phenyl)-3-methyl-5-{[5-(trifluoromethyl)pyrazin-2-yl]amino}-1,2-thiazole-4-carboxamide]
2 | 17 | 42 | Cc1nsc(Nc2cnc(C(F)(F)F)cn2)c1C(=O)Nc1ccc(F)c(O[C@@H]2CCN(CC(F)(F)F)C2)c1 [Example 413, N-(4-Fluoro-3-{[(3R)-1-(2,2,2-trifluoroethyl)pyrrolidin-3-yl]oxy}phenyl)-3-methyl-5-{[5-(trifluoromethyl)pyrazin-2-yl]amino}-1,2-thiazole-4-carboxamide]
3 | 1200 | 3400 | Cc1nsc(Nc2cnc(C(F)(F)F)cn2)c1C(=O)Nc1ccc(OCC2CCN(CCC(F)(F)F)CC2(F)F)nc1 (centres unmarked) [Example 402, N-(6-{[3,3-difluoro-1-(3,3,3-trifluoropropyl)piperidin-4-yl]methoxy}pyridin-3-yl)-3-methyl-5-{[5-(trifluoromethyl)pyrazin-2-yl]amino}-1,2-thiazole-4-carboxamide]
4 | 24 | 39 | Cc1nsc(Nc2cnc(C(F)(F)F)cn2)c1C(=O)Nc1ccc(O[C@@H]2CN(CC(F)F)C[C@@H]2F)nc1 [Example 411, N-(6-{[(3R,4S)-1-(2,2-Difluoroethyl)-4-fluoropyrrolidin-3-yl]oxy}pyridin-3-yl)-3-methyl-5-{[5-(trifluoromethyl)pyrazin-2-yl]amino}-1,2-thiazole-4-carboxamide]
5 | 700 | 920 | Cc1nsc(Nc2cnc(C(F)(F)F)cn2)c1C(=O)Nc1ccc(F)c(OCCCNC(=O)C(F)(F)F)c1 [Example 427, N-(4-Fluoro-3-{3-[(trifluoroacetyl)amino]propoxy}phenyl)-3-methyl-5-{[5-(trifluoro-methyl)pyrazin-2-yl]amino}-1,2-thiazole-4-carboxamide]
6 | 3.1 | 47 | CCCN1C[C@H](F)[C@H](Oc2ccc(NC(=O)c3c(C)nsc3Nc3cnc(C(F)(F)F)cn3)cn2)C1 [Example 408, N-(6-{[(3R,4S)-4-Fluoro-1-propylpyrrolidin-3-yl]oxy}pyridin-3-yl)-3-methyl-5-{[5-(trifluoromethyl)pyrazin-2-yl]amino}-1,2-thiazole-4-carboxamide]
7 | 5800 | 6600 | Cc1nsc(Nc2cnccn2)c1C(=O)Nc1ccc(OCCCN)nc1 [Example 48, N-[6-(3-Aminopropoxy)pyridin-3-yl]-3-methyl-5-(pyrazin-2-ylamino)-1,2-thiazole-4-carboxamide]
8 | 41 | 250 | Cc1nsc(Nc2ccc(C#N)cn2)c1C(=O)Nc1ccc(OCCCNC(=O)OC(C)(C)C)nc1 [Example 46, tert-Butyl [3-({5-[({5-[(5-cyanopyridin-2-yl)amino]-3-methyl-1,2-thiazol-4-yl}-carbonyl)amino]pyridin-2-yl}oxy)propyl]carbamate]
9 | 9.4 | 32 | Cc1nsc(Nc2cnc(C(F)(F)F)cn2)c1C(=O)Nc1ccc(F)c(O[C@H]2CCN(CC(F)F)C2)c1 [Example 417, N-(3-{[(3S)-1-(2,2-Difluoroethyl)pyrrolidin-3-yl]oxy}-4-fluorophenyl)-3-methyl-5-{[5-(trifluoromethyl)pyrazin-2-yl]amino}-1,2-thiazole-4-carboxamide]
10 | 3500 | 20000 | Cc1nsc(Nc2cc(C#N)ccn2)c1C(=O)Nc1ccc(OCCCNCC(F)F)nc1 [Example 45, 5-[(4-Cyanopyridin-2-yl)amino]-N-(6-{3-[(2,2-difluoroethyl)amino]propoxy}pyridin-3-yl)-3-methyl-1,2-thiazole-4-carboxamide]
